Reference: patent US6670391B2, “Benzopyran derivative and antiallergic agent” (Dainippon Ink and Chemicals, Inc., priority 2001, dated 2003)
Read-outs that look alike come from different tables or passages of the source.

Tested on: male Hartley guinea pigs actively sensitized with egg-white albumin
Assay: Antiallergic Test due to Antigen-Induced Immediate Type Airway Reaction and Delayed Type Airway Reaction
Assay type: in vivo
Conditions: Cavia porcellus, po, 10 mg/kg orally once one hour before induction (prednisolone 10 mg/kg orally twice, 16 hours and 2 hours before)
Procedure: Using an ultrasonic nebulizer (NE-U12, manufactured by OMRON Corporation), male Hartley guinea pigs (aged six weeks) were actively sensitized by consecutive 8-day inhalation of a 1 wt % physiological saline of egg-white albumin for 10 minutes a day. After one week passed since the final sensitization, an asthmatic disease state was induced by inhalation of a 2 wt % physiological saline of egg-white albumin for 5 minutes in the same manner. To inhibit the synthesis of endogenous steroid, metyrapone (10 mg/kg) was intravenously administered at 24 hours and one hour before the induction. To inhibit anaphylactic shock, pyrilamine (10 mg/kg) was intraperitoneally administered 30 minutes before inducing the asthmatic reaction.
After inducing the asthmatic reaction, the airway resistance (specific airway resistance Raw) was measured for 1 minute before inducing the asthmatic reaction, and 1 minute, 2 hours, 4 hours, 5 hours, 6 hours, 7 hours, 8 hours, and 23-24 hours after inducing the asthmatic reaction, using an airway resistance measuring apparatus (Pulmos-I, manufactured by M.I.P.S.). An average value of the airway resistance was determined, and an airway resistance increase ratio with respect to the value of the airway resistance before the induction was calculated by the following Equation 1.
Each of the test substances (10 mg/kg) listed in Table 1 was suspended in an aqueous 0.5% methyl cellulose solution, and the suspension was orally administered once one hour before inducing the asthmatic reaction. A positive control substance (prednisolone) was orally administered twice at a dosage of 10 mg/kg 16 hours and 2 hours before inducing the asthmatic reaction. The test was carried out on 8 animals per group.
According to this test procedure, a two-phase increase in airway resistance was observed immediately after inducing the asthmatic reaction and after 4-8 hours passed since inducing the asthmatic reaction. In the present invention, the former increase in airway resistance is referred to as the immediate type asthmatic reaction, while the latter increase in airway resistance is referred to as the delayed type asthmatic reaction. With respect to the evaluation of the drug, for the immediate type asthmatic reaction, the inhibition percentage with respect to the asthmatic reaction inhibiting medium administration group (referring to the group wherein a test drug is not administered after inducing the asthmatic reaction, hereinafter merely referred to as the “medium administration group”) was determined by Equation 2 using the airway resistance increase ratio after one minute gas passed since the induction as an index.
For the delayed type asthmatic reaction, the inhibition percentage with respect to the medium administration group was determined by the following Equation 3 using the area under the curve (AUC4-8) of the airway resistance increase ratio up to 4-8 hours after inducing the asthmatic reaction as an index. As an example, the relationship between the airway resistance increase ratio up to 4-8 hours after inducing the asthmatic reaction of the delayed type asthmatic reaction and time in the medium administration group, the prednisolone administration group, and the compound (216) administration group is shown in FIG. 1. As used herein, the area under the curve showing the relationship between the airway resistance increase ratio and time is (AUC4-8)
Airway resistance increase ratio (%)=(airway resistance after inducing the asthmatic airway resistance−airway resistance before inducing the asthmatic reaction)/(airway resistance before inducing the asthmatic reaction)×100
Inhibition (%)=(1−airway resistance increase ratio after one minute has passed since inducing the asthmatic reaction of the test substance administration group/airway resistance increase ratio after one minute has passed since inducing the asthmatic reaction of the medium administration group)×100 […]

[1] = 1 min, airway resistance increase ratio one minute after induction vs medium administration group, read-out: Inhibition (%) against immediate type allergy
[2] = AUC4-8 of airway resistance increase ratio 4-8 hours after induction vs medium administration group, read-out: Inhibition (%) against delayed type allergy

SMILES	inhibition in vivo at 10 mg/kg [1] [%]	inhibition in vivo at 10 mg/kg [2] [%]
COc1ccc2c(O)c(O)c(=O)oc2c1 [Comparative Compound (1), 3,4-dihydroxy-7-methoxy-2H-1-benzopyran-2-one, reference compound]	5.7	21.9
CCCCCCCCCCOc1ccc2c(O)c(OC)c(=O)oc2c1 [Comparative Compound (2), 3-methoxy-4-hydroxy-7-decyloxy-2H-1-benzopyran-2-one, reference compound]	6.5	20.2
CCCCCCCCCCOc1cccc2c(OCCCC)c(O)c(=O)oc12 [Comparative Compound (3), 3-hydroxy-4-butoxy-8-decyloxy-2H-1-benzopyran-2-one, reference compound]	5.2	24.3
COc1ccc2c(O)c([C@@H]3O[C@H](CO)[C@@H](O)[C@H](O)[C@H]3O)c(=O)oc2c1 [Comparative Compound (4), 7-methoxy-4-hydroxy-3-(β-D-glucopyranosyl)-2H-1-benzopyran-2-one, reference compound]	4.7	20.5
CCCCOc1ccc2c([C@@H]3O[C@H](CO)[C@@H](O)[C@H](O)[C@H]3O)c(O)c(=O)oc2c1 [Comparative Compound (5), 7-butoxy-3-hydroxy-4-(β-D-glucopyranosyl)-2H-1-benzopyran-2-one, reference compound]	6.8	22.4
CCCCCCOc1c(O)c(=O)oc2cc([C@@H]3O[C@H](CO)[C@@H](O)[C@H](O)[C@H]3O)ccc12 [Comparative Compound (6), 3-hydroxy-4-hexyloxy-7-(β-D-glucopyranosyl)-2H-1-benzopyran-2-one, reference compound]	5.9	24.1
CCCCCCOc1c(O)c2c(OCCO)cccc2oc1=O [Compound (8), 3-hexyloxy-4-hydroxy-5-(2-hydroxyethoxy)-2H-1-benzopyran-2-one]	14.1	58.2
CCCCCCCCOc1c(O)c2c(OCCO)cccc2oc1=O [Compound (14), 3-octyloxy-4-hydroxy-5-(2-hydroxyethoxy)-2H-1-benzopyran-2-one]	32.4	65.5
CCCCCCOc1c(O)c2c(OCCCO)cccc2oc1=O [Compound (29), 3-hexyloxy-4-hydroxy-5-(3-hydroxypropyloxy)-2H-1-benzopyran-2-one]	15.8	60.9
CCCCCCOc1c(O)c2c(OCCC(O)CO)cccc2oc1=O (stereo not drawn) [Compound (53), 3-hexyloxy-4-hydroxy-5-(3,4-dihydroxybutoxy)-2H-1-benzopyran-2-one]	19.3	59.8
CCCCCCOc1c(O)c2c(OCC(=O)O)cccc2oc1=O [Compound (65), 3-hexyloxy-4-hydroxy-5-hydroxycarbonylmethoxy-2H-1-benzopyran-2-one]	21.5	60.2
CC(C)=CCC/C(C)=C/COc1c(O)c2c(OCC(=O)O)cccc2oc1=O [Compound (81), 3-geranyloxy-4-hydroxy-5-hydroxycarbonylmethoxy-2H-1-benzopyran-2-one]	15.4	54.1
CCCCCCOc1c(O)c2c(OCCCCC(=O)O)cccc2oc1=O [Compound (99), 3-hexyloxy-4-hydroxy-5-(4-hydroxycarbonylbutoxy)-2H-1-benzopyran-2-one]	14.6	61.9
CCCCCCOc1c(O)c2cc(OCCO)ccc2oc1=O [Compound (109), 3-hexyloxy-4-hydroxy-6-(2-hydroxyethoxy)-2H-1-benzopyran-2-one]	14	66.8
CCCCCCCCOc1c(O)c2cc(OCCO)ccc2oc1=O [Compound (115), 3-octyloxy-4-hydroxy-6-(2-hydroxyethoxy)-2H-1-benzopyran-2-one]	31.8	61.7
CCOc1c(O)c2cc(OCCCCO)ccc2oc1=O [Compound (137), 3-ethoxy-4-hydroxy-6-(4-hydroxybutoxy)-2H-1-benzopyran-2-one]	8.3	58.9
CCCCCCOc1c(O)c2cc(OCC(O)CO)ccc2oc1=O (stereo not drawn) [Compound (147), 3-hexyloxy-4-hydroxy-6-(2,3-dihydroxypropyloxy)-2H-1-benzopyran-2-one]	19.1	59.5
CCCCCCOc1c(O)c2cc(OCC(=O)O)ccc2oc1=O [Compound (166), 3-hexyloxy-4-hydroxy-6-hydroxycarbonylmethoxy-2H-1-benzopyran-2-one]	23.5	64.1
CCCCCCC=COc1c(O)c2cc(OCCCCC(=O)O)ccc2oc1=O [Compound (202), 3-(1-octenyloxy)-4-hydroxy-6-(4-hydroxycarbonylbutoxy)-2H-1-benzopyran-2-one]	19.9	57.8
CCCCOc1c(O)c2ccc(OCCO)cc2oc1=O [Compound (207), 3-butoxy-4-hydroxy-7-(2-hydroxyethoxy)-2H-1-benzopyran-2-one]	8.5	71.7
CCCCCCOc1c(O)c2ccc(OCCO)cc2oc1=O [Compound (210), 3-hexyloxy-4-hydroxy-7-(2-hydroxyethoxy)-2H-1-benzopyran-2-one]	14.2	71.4
CCCCCCCCOc1c(O)c2ccc(OCCO)cc2oc1=O [Compound (216), 3-octyloxy-4-hydroxy-7-(2-hydroxyethoxy)-2H-1-benzopyran-2-one]	38.8	72.5
CC(C)=CCC/C(C)=C/COc1c(O)c2ccc(OCCO)cc2oc1=O [Compound (226), 3-geranyloxy-4-hydroxy-7-(2-hydroxyethoxy)-2H-1-benzopyran-2-one]	22.8	61.5
CCCCCCCCOc1c(O)c2ccc(OCC(O)CO)cc2oc1=O (stereo not drawn) [Compound (249), 3-octyloxy-4-hydroxy-7-(2,3-dihydroxypropyloxy)-2H-1-benzopyran-2-one]	28.8	63.4
CCCCCCOc1c(O)c2ccc(OCC(=O)O)cc2oc1=O [Compound (267), 3-hexyloxy-4-hydroxy-7-hydroxycarbonylmethoxy-2H-1-benzopyran-2-one]	14	62.2
CCCCCCCCOc1c(O)c2ccc(OCC(=O)O)cc2oc1=O [Compound (273), 3-octyloxy-4-hydroxy-7-hydroxycarbonylmethoxy-2H-1-benzopyran-2-one]	32.9	64.5
CCCCCCOc1c(O)c2ccc(OCCC(=O)O)cc2oc1=O [Compound (288), 3-hexyloxy-4-hydroxy-7-(2-hydroxycarbonylethoxy)-2H-1-benzopyran-2-one]	13.4	59.1
CCCCCCOc1c(O)c2cccc(OCCO)c2oc1=O [Compound (311), 3-hexyloxy-4-hydroxy-8-(2-hydroxyethoxy)-2H-1-benzopyran-2-one]	11.9	55.4
CCCCCCOc1c(O)c2cccc(OCC(O)CO)c2oc1=O (stereo not drawn) [Compound (349), 3-hexyloxy-4-hydroxy-8-(2,3-dihydroxypropyloxy)-2H-1-benzopyran-2-one]	12.5	57.2
CCCCCCOc1c(O)c2cccc(OCC(=O)O)c2oc1=O [Compound (368), 3-hexyloxy-4-hydroxy-8-hydroxycarbonylmethoxy-2H-1-benzopyran-2-one]	24.8	60
